Columns and labels:
VEGF = VEGF protein ELISA in Hep3B cell-conditioned medium; assay type: cell-based, human; conditions: Hep3B cells, hypoxic, 24 hours, versus untreated hypoxic cells (P<0.001)
Experimental: FIG. 3 is a histogram showing the amount of VEGF protein. […] The VEGF concentrations were quantified by comparison with a series of VEGF standard samples included in the assay kit. VEGF level in each experiment was measured twice. Bars represent the mean of four separate experiments with the 95% confidence interval. * denotes statistical significance compared to control supernatants from cells cultured under normoxic conditions (P<0.001); # denotes statistical significance compared to control supernatants from cells cultured under hypoxic conditions (P<0.00 1).
Immunoblotting was used to detect HIF-1 protein in cultured cells, as described (Chun et al., Biochem Pharmacol 2001 61:947-954). […] To quantify mRNAs for HIF-1α and HIF-1-regulated genes, we performed a highly sensitive, semi-quantitative reverse transcription-polymerase chain reaction (RT PCR), as described previously (Chun et al., J Cell Sci 2001 114:4051-4061). […] P-actin mRNA was measured as a PCR control. […] To assess whether the VEGF mRNA levels affected levels of VEGF protein secreted into the medium, we measured VEGF protein levels in Hep3B cell-conditioned medium. […] VEGF levels in the conditioned media were quantified by using the Quantikine human VEGF Immunoassay kit (R&D Systems, Minneapolis, Minn.) according to the manufacturer's recommended protocol. […]

[1] = system: human cancer xenografts (Hep3B, NCI-H87, SiHa, SK-N-MC, Caki-1); test: counts of HIF-1α-positive cells and CD31-positive vessels in xenograft tumor sections; assay type: in vivo, nude mice; conditions: regardless of cell origin, treated 2 weeks, P<0.01
Experimental: FIG. 10 is a histogram showing HIF-1α expression detected by immunohistochemistry in human cancer xenografts derived from Hep3B hepatoma, NCI-H87 gastric carcinoma, SiHa cervical carcinoma, SK-N-MC neuroblastoma, or Caki-1 renal carcinoma cells. Male nude mice were injected subcutaneously in the flank with 5×10^6 viable tumor cells. […] After the last treatment, the mice were euthanized, the tumors removed, fixed with formalin, embedded in paraffin and processed for hinmunohistochemistry to detect HIF-1α-positive cells. […] Each bar represents the mean with lower or upper 95% confidence interval. Differences between treatment groups were compared using a Mann-Whitney U test. […]
FIG. 11 is a histogram showing vascular density detected by immunohistochemistry in human cancer xenografts derived from Hep3B hepatoma, NCI-H87 gastric carcinoma, SiHa cervical carcinoma, SK-N-MC neuroblastoma, or Caki-1 renal carcinoma cells. […]
We further quantified the numbers of HIF-1α-positive cells and CD31-positive vessels in tumor sections from vehicle- and YC-1-treated mice. […] The expression of HIF-1α and the vessel density were measured by counting the numbers of immunopositive cells and vessel profiles (identified by CD31 staining) per mm^2 under microscopic images. We analyzed ten or more different lesions per xenograft tumor.

OCc1ccc(-c2nn(Cc3ccccc3)c3ccccc23)o1 [YC-1, 3-(5′-hydroxymethyl-2′-furyl)-1-benzylindazole]
VEGF protein level in medium (VEGF): decreased in a dose-dependent manner
blood vessel formation (CD31 vessel profiles per mm^2) [1]: statistically significantly inhibited
expression of HIF-1α protein (immunopositive cells per mm^2) [1]: statistically significantly inhibited

From patent US20050096370A1, “Method for inhibiting tumor angiogenesis and tumor growth” (Bizbiotech Co., Ltd., priority 2003, published 2005)
